{
  "source": "patent US12577228B2",
  "about": "“Dihydrocyclopenta-isoquinoline-sulfonamide derivatives compounds” (UCB Biopharma SRL, priority 2019, dated 2026)",
  "note": "pIC50: −log10 of the molar value. Counter-ions that a name gives are not always drawn.",
  "data": [
    {"biological_target": "T1, IgE-Tb / soluble IgE receptor FcεRIα with a Y131A mutation (Homo sapiens, UniProt P01854, N146Q/N252Q)", "T1 construct": "fused on or other part: Terbium chelate (LanthaScreen amine-reactive) on IgE-Fc; Alexa Fluor 488 hydrazide on the oxidised glycans of sFcεRIα; Both are labels and no part of the key", "T1 sequence (P01854 104-427 N146Q/N252Q)": "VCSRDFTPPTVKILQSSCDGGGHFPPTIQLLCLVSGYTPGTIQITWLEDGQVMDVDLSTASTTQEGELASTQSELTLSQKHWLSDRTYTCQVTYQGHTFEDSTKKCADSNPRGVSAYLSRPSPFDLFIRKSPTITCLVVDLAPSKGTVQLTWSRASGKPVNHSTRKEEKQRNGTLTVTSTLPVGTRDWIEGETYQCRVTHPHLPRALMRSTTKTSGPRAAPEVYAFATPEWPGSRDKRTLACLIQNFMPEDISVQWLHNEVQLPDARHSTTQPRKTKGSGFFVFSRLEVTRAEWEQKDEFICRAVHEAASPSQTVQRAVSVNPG", "T1 sequence (P12319 26-201 Y156A partner)": "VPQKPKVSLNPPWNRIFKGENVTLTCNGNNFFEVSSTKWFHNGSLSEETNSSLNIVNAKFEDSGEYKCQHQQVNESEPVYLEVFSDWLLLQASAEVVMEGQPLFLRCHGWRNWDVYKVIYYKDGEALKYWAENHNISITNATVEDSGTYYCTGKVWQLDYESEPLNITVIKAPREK", "assay": "in vitro FRET assay: binding of IgE-Tb to receptor FcεRIα-Y131A-AF488 and its inhibition by compounds", "conditions": "5 nM IgE-Tb, 25 nM FcεRIα-Y131A-AF488, 2 hours at room temperature; read-out: FRET IC50 range", "values": [
      {"smiles": "CC(C)(F)CNS(=O)(=O)c1c2c(cc3cnc(C4CC4)cc13)C[C@@H](NC(=O)c1c[nH]c3ccccc13)C2", "note": "[Example 130, N-[(7R)-3-cyclopropyl-5-[(2-fluoro-2-methylpropyl)sulfamoyl]-7,8-dihydro-6H-cyclopenta[g]isoquinolin-7-yl]-1H-indole-3-carboxamide]", "pIC50": "7.30 to 8.00"},
      {"smiles": "CCNC(=O)CN1Cc2cc3cnc(C4CC4)cc3c(S(=O)(=O)NCC(C)C)c2C1", "note": "[Example 59, 2-[7-cyclopropyl-9-(2-methylpropylsulfamoyl)-1,3-dihydropyrrolo[3,4-g]isoquinolin-2-yl]-N-ethylacetamide]", "pIC50": "5.70 to 7.00"},
      {"smiles": "O=S(=O)(NC1CC(F)(F)C1)c1c2c(cc3cnc(C4CC4)cc13)CC(Nc1ccc(C3(O)COC3)nc1)C2", "note": "(centres unmarked) [Example 74, 3-cyclopropyl-N-(3,3-difluorocyclobutyl)-7-[[6-(3-hydroxyoxetan-3-yl)pyridin-3-yl]amino]-7,8-dihydro-6H-cyclopenta[g]isoquinoline-5-sulfonamide]", "pIC50": "7.30 to 8.00"},
      {"smiles": "CC(C)(F)CNS(=O)(=O)c1c2c(cc3cnc(C4CC4)cc13)C[C@@H](Nc1cnc(C3(O)COC3)nc1)C2", "note": "[Example 30, (7R)-3-cyclopropyl-N-(2-fluoro-2-methylpropyl)-7-[[2-(3-hydroxyoxetan-3-yl)pyrimidin-5-yl]amino]-7,8-dihydro-6H-cyclopenta[g]isoquinoline-5-sulfonamide]", "pIC50": "7.30 to 8.00"},
      {"smiles": "CC(C)CNS(=O)(=O)c1c2c(cc3cnc(C4CC4)cc13)CC(Nc1ccnnc1)C2", "note": "(centres unmarked) [Example 103, 3-cyclopropyl-N-isobutyl-7-(pyridazin-4-ylamino)-7,8-dihydro-6H-cyclopenta[g]isoquinoline-5-sulfonamide; formic acid]", "pIC50": "7.30 to 8.00"},
      {"smiles": "CCNC(=O)NC1CCc2cc3cnc(C4CC4)cc3c(S(=O)(=O)NCC(C)C)c21", "note": "(centres unmarked) [Example 46, 1-[3-cyclopropyl-5-(2-methylpropylsulfamoyl)-7,8-dihydro-6H-cyclopenta[g]isoquinolin-6-yl]-3-ethylurea]", "pIC50": "5.70 to 7.00"},
      {"smiles": "Cn1ncc(NC2Cc3cc4c(F)nc(C5CC5)cc4c(S(=O)(=O)NCC(C)(C)F)c3C2)cc1=O", "note": "(centres unmarked) [Example 29, 3-cyclopropyl-1-fluoro-N-(2-fluoro-2-methyl-propyl)-7-[(1-methyl-6-oxo-pyridazin-4-yl)amino]-7,8-dihydro-6H-cyclopenta[g]isoquinoline-5-sulfonamide]", "pIC50": "7.30 to 8.00"},
      {"smiles": "CC(C)(F)CNS(=O)(=O)c1c2c(cc3cnc(C4CC4)cc13)C[C@@H](Nc1ccc(CO)nc1)C2", "note": "[Example 12, (7R)-3-cyclopropyl-N-(2-fluoro-2-methylpropyl)-7-[[6-(hydroxymethyl)pyridin-3-yl]amino]-7,8-dihydro-6H-cyclopenta[g]isoquinoline-5-sulfonamide]", "pIC50": "7.30 to 8.00"},
      {"smiles": "CC(C)CNS(=O)(=O)c1c2c(cc3cnc(C4CC4)cc13)CCC2", "note": "[Example 69, 3-cyclopropyl-N-isobutyl-7,8-dihydro-6H-cyclopenta[g]isoquinoline-5-sulfonamide]", "pIC50": "7.00 to 7.30"},
      {"smiles": "Cn1ncc(NC2Cc3cc4cnc(C5CC5)cc4c(S(=O)(=O)NCC(C)(C)F)c3C2)cc1=O", "note": "(centres unmarked) [Example 140, 3-cyclopropyl-N-(2-fluoro-2-methylpropyl)-7-[(1-methyl-6-oxopyridazin-4-yl)amino]-7,8-dihydro-6H-cyclopenta[g]isoquinoline-5-sulfonamide]", "pIC50": "7.30 to 8.00"},
      {"smiles": "CC(C)(F)CNS(=O)(=O)c1c2c(cc3cnc(C4CC4)cc13)C[C@@H](Nc1ccc(F)nc1)C2", "note": "[Example 73, (7R)-3-cyclopropyl-N-(2-fluoro-2-methylpropyl)-7-[(6-fluoropyridin-3-yl)amino]-7,8-dihydro-6H-cyclopenta[g]isoquinoline-5-sulfonamide]", "pIC50": "7.30 to 8.00"},
      {"smiles": "CC(C)(F)CNS(=O)(=O)c1c2c(cc3cnc(C4CC4)cc13)CC(NC(=O)c1cccnc1)C2", "note": "(centres unmarked) [Example 6, N-[3-cyclopropyl-5-[(2-fluoro-2-methylpropyl)sulfamoyl]-7,8-dihydro-6H-cyclopenta[g]isoquinolin-7-yl]pyridine-3-carboxamide]", "pIC50": "7.00 to 7.30"},
      {"smiles": "CC(C)(C)OC(=O)c1ccc(N[C@@H]2Cc3cc4cnc(C5CC5)cc4c(S(=O)(=O)NC4CC(F)(F)C4)c3C2)cn1", "note": "[Example 85, tert-butyl 5-[[(7R)-3-cyclopropyl-5-[(3,3-difluorocyclobutyl)sulfamoyl]-7,8-dihydro-6H-cyclopenta[g]isoquinolin-7-yl]amino]pyridine-2-carboxylate]", "pIC50": "7.30 to 8.00"},
      {"smiles": "CC(C)(F)CNS(=O)(=O)c1c2c(cc3cnc(C4CC4)cc13)CC(NC(=O)Cc1ccccc1)C2", "note": "(centres unmarked) [Example 87, N-[3-cyclopropyl-5-[(2-fluoro-2-methylpropyl)sulfamoyl]-7,8-dihydro-6H-cyclopenta[g]isoquinolin-7-yl]-2-phenylacetamide]", "pIC50": "7.00 to 7.30"},
      {"smiles": "Cn1nc(O)cc1NC1Cc2cc3cnc(C4CC4)cc3c(S(=O)(=O)NCC(C)(C)F)c2C1", "note": "(centres unmarked) [Example 112, 3-cyclopropyl-N-(2-fluoro-2-methylpropyl)-7-[(5-hydroxy-2-methylpyrazol-3-yl)amino]-7,8-dihydro-6H-cyclopenta[g]isoquinoline-5-sulfonamide]", "pIC50": "5.70 to 7.00"},
      {"smiles": "CC(C)(F)CNS(=O)(=O)c1c2c(cc3cnc(C4CC4)cc13)CC1(COC(=O)N1)C2", "note": "(centres unmarked) [Example 49, 3′-cyclopropyl-N-(2-fluoro-2-methylpropyl)-2-oxospiro[1,3-oxazolidine-4,7′-6,8-dihydrocyclopenta[g]isoquinoline]-5′-sulfonamide]", "pIC50": "5.70 to 7.00"},
      {"smiles": "CCNc1c(NC2Cc3cc4cnc(C5CC5)cc4c(S(=O)(=O)NCC(C)C)c3C2)c(=O)c1=O", "note": "(centres unmarked) [Example 53, 3-cyclopropyl-7-[[2-(ethylamino)-3,4-dioxocyclobuten-1-yl]amino]-N-(2-methylpropyl)-7,8-dihydro-6H-cyclopenta[g]isoquinoline-5-sulfonamide]", "pIC50": "7.30 to 8.00"},
      {"smiles": "Cn1ccc(NC2Cc3cc4cnc(C5CC5)cc4c(S(=O)(=O)NCC(C)(C)F)c3C2)cc1=O", "note": "(centres unmarked) [Example 96, 3-cyclopropyl-N-(2-fluoro-2-methyl-propyl)-7-[(1-methyl-2-oxo-4-pyridyl)amino]-7,8-dihydro-6H-cyclopenta[g]isoquinoline-5-sulfonamide; formate salt]", "pIC50": "7.30 to 8.00"},
      {"smiles": "CCNC(=O)NC1Cc2cc3cnc(C4CC4)cc3c(S(=O)(=O)NCC(C)C)c2C1", "note": "(centres unmarked) [Example 44, 1-[3-cyclopropyl-5-(2-methylpropylsulfamoyl)-7,8-dihydro-6H-cyclopenta[g]isoquinolin-7-yl]-3-ethylurea]", "pIC50": "7.30 to 8.00"},
      {"smiles": "Cn1ncc2c(NC3Cc4cc5cnc(C6CC6)cc5c(S(=O)(=O)NCC(C)(C)F)c4C3)cncc21", "note": "(centres unmarked) [Example 84, 3-cyclopropyl-N-(2-fluoro-2-methylpropyl)-7-[(1-methylpyrazolo[3,4-c]pyridin-4-yl)amino]-7,8-dihydro-6H-cyclopenta[g]isoquinoline-5-sulfonamide]", "pIC50": "7.30 to 8.00"},
      {"smiles": "CC(C)(F)CNS(=O)(=O)c1c2c(cc3cnc(C4CC4)cc13)CC(Nc1cncc(S(C)(=O)=O)c1)C2", "note": "(centres unmarked) [Example 123, 3-cyclopropyl-N-(2-fluoro-2-methylpropyl)-7-[(5-methylsulfonylpyridin-3-yl)amino]-7,8-dihydro-6H-cyclopenta[g]isoquinoline-5-sulfonamide]", "pIC50": "7.30 to 8.00"},
      {"smiles": "CC(C)(F)CNS(=O)(=O)c1c2c(cc3cnc(C4CC4)cc13)CN(c1cccnc1N)C2", "note": "[Example 51, 2-(2-aminopyridin-3-yl)-7-cyclopropyl-N-(2-fluoro-2-methylpropyl)-1,3-dihydropyrrolo[3,4-g]isoquinoline-9-sulfonamide]", "pIC50": "5.70 to 7.00"},
      {"smiles": "Cc1noc(-c2ccc(N[C@@H]3Cc4cc5cnc(C6CC6)cc5c(S(=O)(=O)NCC(C)(C)F)c4C3)cn2)n1", "note": "[Example 36, (7R)-3-cyclopropyl-N-(2-fluoro-2-methylpropyl)-7-[[6-(3-methyl-1,2,4-oxadiazol-5-yl)pyridin-3-yl]amino]-7,8-dihydro-6H-cyclopenta[g]isoquinoline-5-sulfonamide]", "pIC50": "8.00 to 9.00"},
      {"smiles": "CC(C)(F)CNS(=O)(=O)c1c2c(cc3cnc(C4CC4)cc13)CC1CC21", "note": "(centres unmarked) [Example 107, 13-cyclopropyl-N-(2-fluoro-2-methylpropyl)-12-azatetracyclo[8.4.0.03,8.04,6]tetradeca-1 (10),2,8,11,13-pentaene-2-sulfonamide]", "pIC50": "5.70 to 7.00"},
      {"smiles": "CC(C)(F)CNS(=O)(=O)c1c2c(cc3cnc(C4CC4)cc13)C[C@@H](Nc1cnc(-c3nnn[nH]3)nc1)C2", "note": "[Example 124, (7R)-3-cyclopropyl-N-(2-fluoro-2-methylpropyl)-7-[[2-(1H-tetrazol-5-yl)pyrimidin-5-yl]amino]-7,8-dihydro-6H-cyclopenta[g]isoquinoline-5-sulfonamide]", "pIC50": "7.30 to 8.00"},
      {"smiles": "CC(=O)Nc1cncc(NC2Cc3cc4cnc(C5CC5)cc4c(S(=O)(=O)NCC(C)(C)F)c3C2)c1", "note": "(centres unmarked) [Example 121, N-[5-[[3-cyclopropyl-5-[(2-fluoro-2-methylpropyl)sulfamoyl]-7,8-dihydro-6H-cyclopenta[g]isoquinolin-7-yl]amino]pyridin-3-yl]acetamide]", "pIC50": "7.30 to 8.00"},
      {"smiles": "CC(C)(F)CNS(=O)(=O)c1c2c(cc3cnc(C4CC4)cc13)CN(Cc1ccn[nH]1)C2", "note": "[Example 102, 7-cyclopropyl-N-(2-fluoro-2-methylpropyl)-2-(1H-pyrazol-5-ylmethyl)-1,3-dihydropyrrolo[3,4-g]isoquinoline-9-sulfonamide]", "pIC50": "5.70 to 7.00"},
      {"smiles": "NC(=O)c1ccc(N[C@@H]2Cc3cc4cnc(C5CC5)cc4c(S(=O)(=O)NC4CC(F)(F)C4)c3C2)nn1", "note": "[Example 94, 6-[[(7R)-3-cyclopropyl-5-[(3,3-difluorocyclobutyl)sulfamoyl]-7,8-dihydro-6H-cyclopenta[g]isoquinolin-7-yl]amino]pyridazine-3-carboxamide]", "pIC50": "7.30 to 8.00"},
      {"smiles": "CC(C)(F)CNS(=O)(=O)c1c2c(cc3cnc(C4CC4)cc13)CC(Nc1cncc(C#N)c1)C2", "note": "(centres unmarked) [Example 122, 7-[(5-cyanopyridin-3-yl)amino]-3-cyclopropyl-N-(2-fluoro-2-methylpropyl)-7,8-dihydro-6H-cyclopenta[g]isoquinoline-5-sulfonamide]", "pIC50": "5.70 to 7.00"}
    ]}
  ]
}
